Structures can show the parent of a compound that is named as a salt. Where two headings read alike, the source gives them in different places.
How the values were obtained:
[1] = molecular target: T1, human His-PIM2 [23-299] (Homo sapiens, UniProt Q9P1W9); assay: PIM2 in-vitro mobility shift assay (Caliper LC3000, FL-Ahx-Bad phosphorylation); format: biochemical; conditions: 1.5 h; percent inhibition at 0.3 uM compound; read-out: PIM2 % I at 0.3 uM
T1 construct: purified human His-PIM2 [23-299] enzyme; His (N); host or cells: E. coli
From the text: PIM2 In-Vitro Mobility Shift Assay
(§1) One may determine the activity of purified human His-PIM2 [23-299] enzyme in-vitro using a mobility shift assay on a Caliper LC3000 reader (Caliper, Mass.), which measures fluorescence of a phosphorylated and unphosphorylated FL-Ahx-Bad (FITC-(AHX)RSRHSSYPAGT-COOH, Primm 200606-00289, Primm Biotech, Mass.) and calculates a ratiometric value to determine percent turnover. One may express PIM2 (produced at AstraZeneca, R&D Boston) in E. coli cells with a typical yield of >90% purity.
One determines phosphorylation of the FL-Ahx-Bad in the presence and absence of the compound of interest. One preincubates 5 uL of Enzyme/Substrate/adenosine triphosphate (ATP) mix consisting of 2.4 nM […], 3.6 uM FL-Ahx-Bad, and 12 uM ATP in 1.2× buffer with 2 ul of compound for 20 minutes at 25° C. One initiates reactions with 5 uL of Metal mix consisting of 24 mM MgCl2 in 1.2× buffer and incubates at 25° C. for 90 minutes. One stops reactions by addition of 5 uL of Stop mix consisting of 100 mM HEPES, 121 mM ethylenediamine tetraacetic acid, 0.8% Coatin Reagent 3 (Caliper, Mass.), and 0.01% Tween. One detects phosphorylated and unphosphorylated substrate by a Caliper LC3000 reader (Caliper, Mass.) in the presence of separation buffer consisting of 100 mM HEPES, 16 mM ethylenediamine tetraacetic acid, 0.1% Coatin Reagent 3 (Caliper, Mass.), 0.015% Brij-35, 5% DMSO, and 5.6 mM MgCl2. One may use the following separation conditions for a Caliper LC3000: −1.0 PSI, −2000 V upstream voltage, −400 V downstream voltage, 0.2 second sample sip, 45 second post sip, 10% laser strength.

[2] = molecular target: T2, human His-PIM1 [2-313] (Homo sapiens, UniProt P11309); assay: PIM1 in-vitro mobility shift assay (Caliper LC3000, FL-Ahx-Bad phosphorylation); format: biochemical; conditions: 1.5 h, read-out: PIM1 % I at 0.3 uM
T2 construct: purified human His-PIM1 [2-313] enzyme; His (N); purchased University of Dundee, Scotland; host or cells: baculovirus system
From the text: PIM1 In-Vitro Mobility Shift Assay
as §1, with “His-PIM1 [2-313]” for “His-PIM2 [23-299]”, “PIM1 (University of Dundee, Scotland)” for “PIM2 (produced at AstraZeneca, R&D Boston)”, “baculovirus system” for “E. coli cells”, “>85%” for “>90%”
One determines phosphorylation of the FL-Ahx-Bad in the presence and absence of the compound of interest. One preincubates 5 µl of Enzyme/Substrate/adenosine triphosphate (ATP) mix consisting of 2.4 nM PIM1, 3.6 uM FL-Ahx-Bad, and 240 uM ATP in 1.2× buffer with 2 ul of compound for 20 minutes at 25° C. One initiates reactions with 5 ul of Metal mix consisting of 24 mM MgCl2 in 1.2× buffer and incubated at 25° C. for 90 minutes and stops the reactions by addition of 5 ul of Stop mix consisting of 100 mM HEPES, 121 mM ethylenediamine tetraacetic acid, 0.8% Coatin Reagent 3 (Caliper, Mass.), and 0.01% Tween. One detects phosphorylated and unphosphorylated substrate by a Caliper LC3000 reader (Caliper, Mass.) in the presence of separation buffer consisting of 100 mM HEPES, 16 mM ethylenediamine tetraacetic acid, 0.1% Coatin Reagent 3 (Caliper, Mass.), 0.015% Brij-35, 5% DMSO, and 5.6 mM MgCl2. One may use the following separation conditions for a Caliper LC3000: −1.0 PSI, −2000 V upstream voltage, −400 V downstream voltage, 0.2 second sample sip, 45 second post sip, 10% laser strength.
The table 1 below provides the percent inhibition of PIM1 at 0.3 micromolar for Examples provided herein. Several examples were tested more than once. Variations in the experimental outcomes, negative values, or values over 100% inhibition are presumably due to experimental error inherent in the assay.

[3] = percent inhibition at 0.3 uM compound

T1 sequence (Q9P1W9 23-299): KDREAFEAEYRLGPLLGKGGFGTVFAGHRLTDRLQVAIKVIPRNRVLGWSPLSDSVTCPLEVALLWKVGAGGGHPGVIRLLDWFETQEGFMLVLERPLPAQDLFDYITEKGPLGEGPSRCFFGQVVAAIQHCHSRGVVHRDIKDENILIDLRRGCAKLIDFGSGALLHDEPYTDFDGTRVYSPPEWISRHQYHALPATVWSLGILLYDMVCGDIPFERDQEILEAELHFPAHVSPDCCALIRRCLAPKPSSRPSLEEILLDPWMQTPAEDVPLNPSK
T2 sequence (P11309 2-313): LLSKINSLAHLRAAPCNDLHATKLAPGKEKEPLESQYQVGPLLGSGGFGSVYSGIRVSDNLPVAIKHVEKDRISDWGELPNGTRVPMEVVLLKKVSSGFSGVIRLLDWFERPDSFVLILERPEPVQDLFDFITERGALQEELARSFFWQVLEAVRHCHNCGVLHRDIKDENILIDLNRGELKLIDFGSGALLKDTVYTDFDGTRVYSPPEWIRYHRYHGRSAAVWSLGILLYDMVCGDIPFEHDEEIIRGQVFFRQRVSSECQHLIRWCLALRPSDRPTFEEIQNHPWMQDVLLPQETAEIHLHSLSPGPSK

inhibition at 0.3 µM [1]	inhibition at 0.3 µM [2, 3]	SMILES	inhibition at 0.3 µM [2]
93.4%	> 95%	O=C1NC(=O)/C(=C/c2cccc(Cl)c2N2CCC[C@@H](NCCO)C2)S1 [Example 133]	–
> 95%	> 95%	CN(C)[C@H]1CCN(c2c(Br)cccc2/C=C2\SC(=O)NC2=O)C1 [Example 33, (S,Z)-5-(3-bromo-2-(3-(dimethylamino)pyrrolidin-1-yl)benzylidene)thiazolidine-2,4-dione hydrochloride]	–
45.4%	93.7%	CC(C)N1CCN(c2ccccc2/C=C2\SC(=O)NC2=O)CC1 [Example 50, (5Z)-5-[2-(4-isopropylpiperazin-1-yl)benzylidene]-1,3-thiazolidine-2,4-dione]	–
> 95%	> 95%	COc1cccc(/C=C2\SC(=O)NC2=O)c1N1CCN(C(=O)CCN)CC1 [Example 94, (Z)-5-(2-(4-(3-aminopropanoyl)piperazin-1-yl)-3-methoxybenzylidene)thiazolidine-2,4-dione hydrochloride]	–
27.6%	59.6%	Cn1ccc2cc(/C=C3\SC(=O)NC3=O)ccc21 [Example 76, (5Z)-5-[(1-methyl-1H-indol-5-yl)methylene]-1,3-thiazolidine-2,4-dione]	–
49.8%	85.9%	NS(=O)(=O)CCCC(=O)N[C@H]1CCN(c2c(Cl)cccc2/C=C2\SC(=O)NC2=O)C1 [Example 143]	–
16.7%	10.8%	COc1cc(N)c(/C=C2\SC(=O)NC2=O)cc1OC [Example 152]	–
< 5%	< 5%	O=C1NC(=O)/C(=C/c2cc(C(F)(F)F)cc(Cl)c2N2CCC(CCO)CC2)S1 [Example 13]	–
27.4%	90%	O=C1NC(=O)/C(=C/c2cc(C(F)(F)F)cc(Cl)c2N2CCN(CCO)CC2)S1 [Example 28]	–
25.7%	86.5%	CCN(CC)CCOc1ccccc1/C=C1\SC(=O)NC1=O [Example 64, (Z)-5-(2-(2-(diethylamino)ethoxy)benzylidene)thiazolidine-2,4-dione]	–
< 5%	34.9%	Cn1cc(C(=O)N[C@H]2CCN(c3c(Cl)cccc3/C=C3\SC(=O)NC3=O)C2)cn1 [Example 141]	–
77.7%	> 95%	N[C@H]1CCCN(c2c(Cl)cc(C(F)(F)F)cc2/C=C2\SC(=O)NC2=O)C1 [Example 1, (S,Z)-5-(2-(3-aminopiperidin-1-yl)-3-chloro-5-(trifluoromethyl)benzylidene)thiazolidine-2,4-dione trifluoroacetate]	–
15.1%	58.1%	O=C(Cc1cccnc1)N[C@H]1CCN(c2c(Cl)cccc2/C=C2\SC(=O)NC2=O)C1 [Example 139]	–
33.5%	90.7%	CN(C)C1CCN(c2ccc([N+](=O)[O-])cc2/C=C2\SC(=O)NC2=O)C1 (stereo not drawn) [Example 56, (Z)-5-(2-(3-(dimethylamino)pyrrolidin-1-yl)-5-nitrobenzylidene)thiazolidine-2,4-dione hydrochloride]	–
> 95%	> 95%	COc1cc(/C=C2\SC(=O)NC2=O)c(N2CC[C@H](N)C2)cc1OC [Example 101, (S,Z)-5-(2-(3-aminopyrrolidin-1-yl)-4,5-dimethoxybenzylidene)thiazolidine-2,4-dione hydrochloride]	–
15.6%	90.8%	CC(C)(C)N1CCN(c2c(Cl)cc(C(F)(F)F)cc2/C=C2\SC(=O)NC2=O)CC1 [Example 30]	–
> 95%	> 95%	NCCCN[C@H]1CCN(c2c(Cl)cccc2/C=C2\SC(=O)NC2=O)C1 [Example 125]	–
60.7%	90%	O=C1NC(=O)/C(=C/c2ccc3cc[nH]c3c2)S1 [Example 79, (5Z)-5-(1H-indol-6-ylmethylene)-1,3-thiazolidine-2,4-dione trifluoroacetate]	–
80.9%	> 95%	CN(C)[C@H]1CCN(c2ccc(Br)cc2C=C2SC(=O)NC2=O)C1 [Example 84M, (S)-5-(5-bromo-2-(3-(dimethylamino)pyrrolidin-1-yl)benzylidene)thiazolidine-2,4-dione]	–
> 95%	> 95%	COc1cccc(/C=C2\SC(=O)NC2=O)c1N1CC[C@H](N(C)C)C1 [Example 36, (S,Z)-5-(2-(3-(dimethylamino)pyrrolidin-1-yl)-3-methoxybenzylidene)thiazolidine-2,4-dione]	–
21.5%	48.4%	O=C1NC(=O)/C(=C/c2cccnc2N2CCNCC2)S1 [Example 89, (Z)-5-((2-(piperazin-1-yl)pyridin-3-yl)methylene)thiazolidine-2,4-dione hydrochloride]	–
> 95%	> 95%	O=C1NC(=O)/C(=C/c2cccc(Cl)c2N2CCCNCC2)S1 [Example 122N, (Z)-5-(3-chloro-2-(1,4-diazepan-1-yl)benzylidene)thiazolidine-2,4-dione hydrochloride]	–
< 5%	12.9%	O=C1NC(=O)/C(=C/c2cc(C(F)(F)F)cc(Cl)c2N2CCN(c3ccc(Cl)cc3F)CC2)S1 [Example 15]	–
< 5%	< 5%	COc1cccc(/C=C2\SC(=O)NC2=O)c1N1C[C@@H](C)N[C@@H](C)C1 [Example 35, (Z)-5-(2-((3S,5R)-3,5-dimethylpiperazin-1-yl)-3-methoxybenzylidene)thiazolidine-2,4-dione]	–
15.8%	82.9%	O=C1NC(=O)/C(=C/c2cc(C(F)(F)F)cc(Cl)c2N2CCN(CC3CC3)CC2)S1 [Example 21]	–
< 5%	29.8%	O=C1NC(=O)/C(=C/c2cc(C(F)(F)F)cc(Cl)c2N2CCN(Cc3ccncc3)CC2)S1 [Example 17]	–
> 95%	> 95%	CNC1CN(c2c(Cl)cccc2/C=C2\SC(=O)NC2=O)CCC1C (stereo not drawn) [Example 122U, (Z)-5-(3-chloro-2-(4-methyl-3-(methylamino)piperidin-1-yl)benzylidene)thiazolidine-2,4-dione hydrochloride]	–
55%	88.2%	COc1cc(/C=C2\SC(=O)NC2=O)c(N2CC[C@@H](NCCCN)C2)cc1OC [Example 122A, (R,Z)-5-(2-(3-(3-aminopropylamino)pyrrolidin-1-yl)-4,5-dimethoxybenzylidene)thiazolidine-2,4-dione hydrochloride]	–

SMILES	inhibition at 0.3 µM [1]	inhibition at 0.3 µM [2, 3]	inhibition at 0.3 µM [2]
N[C@@H]1CCCN(c2c(Br)cccc2/C=C2\SC(=O)NC2=O)C1 [Example 122F, (R,Z)-5-(2-(3-aminopiperidin-1-yl)-3-bromobenzylidene)thiazolidine-2,4-dione hydrochloride]	> 95%	–	> 95%
CC(=O)N1CCN(c2ccccc2/C=C2\SC(=O)NC2=O)CC1 [Example 130, (5Z)-5-[2-(4-acetylpiperazin-1-yl)benzylidene]-1,3-thiazolidine-2,4-dione]	45.5%	–	66.2%
